We go through one compound from patent publication US12139458B2, “(2,5-dioxopyrrolidin-1-yl)(phenyl)-acetamide derivatives and their use in the treatment of neurological diseases” (UNIWERSYTET JAGIELLONSKI, priority 2019, dated 2024).

Broadly, the ED50 is the dose at which the effect has come halfway, by size or by number of responders.

Molecules are shown by their SMILES.

The subject of data set [1] is male Swiss albino mice (CD-1). Briefly: Psychomotor seizure test 6 Hz (44 mA). In kind it is in vivo. Put shortly:
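Male CD-1 mice (groups of 4) given compounds i.p. in 1% Tween 30 min before a 3 s, 6 Hz corneal stimulus at 44 mA after lidocaine. Psychomotor seizure signs (immobility, forelimb clonus, vibrissae twitching, Straub tail) scored over 10 s; ANOVA with Dunnett's test, p<0.05.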

In data set [2] the test system is male white Swiss mice (CD-1). Briefly: Capsaicin-induced pain model. Conditions: Mus musculus, ip; i.p. 30 min before capsaicin, mice. In kind it is in vivo. The method, then:
The tests were carried out using male white Swiss mice (CD-1) weighing 18-25 g. All procedures were carried out in accordance with Polish and international guidelines on ethics of animal testing, after obtaining appropriate institutional approval. The study group consisted of 8-10 animals. The tested and reference substances were administered intraperitoneally 30 minutes before given test as suspension in 1% aqueous solution of Tween. All tests/models were carried out based on the procedures described in the specialist literature: the formalin test (Beirith, A.; Santos, A. R.; Calixto, J. B.; Rodrigues, A. L.; Creczynski-Pasa, T. B. Eur. J. Pharmacol. 1998, 345, 233-245), the model of capsaicin-induced pain (Mogilski, S.; Kubacka, M.; Redzicka, A.; Kazek, G.; Dudek, M.; Malinka, W.; Filipek, B. Pharmacol. Biochem. Behav. 2015, 133, 99-110), the model of oxaliplatin-induced neuropathic pain—von Frey test (Sałat, K.; Cios, A.; Wyska, E.; Satat, R.; Mogilski, S.; Filipek, B.; Wigȩkowski, K.; Malawska, B. Pharmacol. Biochem. Behav. 2014, 122, 173-181).
This test assesses the time of licking and/or biting the hind paw into which mice were injected subplantarly with capsaicin in an amount of 1.6 μg, dissolved in 20 μl of a mixture containing 0.9% saline and ethanol (5% of the final volume). Observation was carried out […] after capsaicin administration. Test compounds were administered intraperitoneally 30 minutes before administration of capsaicin. Inhibition of nociceptive reaction—shortening the time of licking and biting the paw was the measure of antinociceptive activity of the compound tested.
Valproic acid (VPA) was the reference compound in this test. […] Compound 6 was administered at 20 mg/kg, 30 mg/kg and 40 mg/kg. Test compounds were administered as a suspension in 1.0% Tween 80 solution. The control group consisted of mice treated with vehicle alone (1% Tween 80 solution). The nociceptive reaction time in this group was 43.29±3.21 seconds.

For data set [3], the system named is male white Swiss mice (CD-1). Briefly: Oxaliplatin-induced neuropathy, Cold Plate test. Conditions: OXPT-induced neuropathy, plate 2° C. In kind it is in vivo. The method, then:
Oxaliplatin (OXPT) was dissolved in a 5% glucose solution, followed by intraperitoneal administration to mice. A single dose of 10 mg/kg was used. Tactile and thermal (sensation of low temperature) allodynia associated with oxaliplatin-induced neuropathy are characterized by two phases. The early phase is acute and develops soon after administration of the OXPT, while the symptoms of the later (chronic) phase (associated with neurons damage), develops after a few days. Behavioral tests in mice with OXPT-induced neuropathy were carried out 7 days after its administration, i.e. in the late phase of neuropathy.
The effect of the test compound on thermal allodynia was evaluated in a Cold Plate test using specialized equipment—Cold/Hot Plate; Bioseb, France. The animals were placed individually on a metal plate cooled to 2° C. using the thermostated device. The observed nociceptive reactions of animals included licking and/or characteristic hind paw lift or bounce. The observation time was set at 60 s to eliminate the potential risk of tissue damage and minimize animal discomfort. Similar to the Von Frey test, the measurement was performed 3 times.
Compound 6 was administered at doses of 10, 20 and 30 mg/kg.

In data set [4] the test system is Ca2+ channel type L (dihydropyridine binding site). The data set is described as follows: Ca2+ channel type L (dihydropyridine binding site) affinity study. Conditions: rat cerebral cortex. The text has this:
A unique feature of the compound 6 representing compounds of formula (II) according to the invention is the inhibition of calcium currents by blocking the transient receptor potential vanilloid type 1 (TRPV1). This effect has not been disclosed for known AEDs. TRPV1 receptor antagonism may determine the antinociceptive effect of the compounds disclosed herein. The role of the TRPV1 receptor in conduction of pain stimuli has been well documented in specialist literature (Szallasi, A.; Cortright, D. N.; Blum, C. A.; Eid, S. R. Nat. Rev. Drug. Discov. 2007, 6, 357-372). The compounds according to the invention are characterized by a complex mechanism of action, which is not described for known anticonvulsants. It should be emphasized, however, that further in vitro studies may reveal further molecular targets responsible for the pharmacological action of substances being the subject of current patent claim. The results of binding studies (sodium channel, calcium channel) and functional tests (TRPV1 receptor) for compound 6 are shown in Table 3.

Data set [5] concerns the target T1, CYP3A4 (Homo sapiens, UniProt P08684).
T1 construct: purchased Promega (Madison, WI, USA)
Briefly: CYP3A4 P450-Glo luminescence test. In kind it is in vitro ADME. The method, then: Effect of compound 6 on cytochrome P-450 3A4 and 2D6 activity. The research was conducted using commercial luminescence tests CYP3A4 P450-Glo™ and CYP2D6 P450-Glo™ from Promega (Madison, WI, USA) based on the methodology described in the literature (Socała, K.; Mogilski, S.; Pieróg, M.; Nieoczym, D.; Abram, M.; Szulczyk, B.; Lubelska, A.; Latacz, G.; Doboszewska, U.; Wlaź, P.; Kamiński, K. ACS Chem. Neurosci. 2018, doi: 10.1021/acschemneuro.8b00476; Latacz, G.; Lubelska, A.; Jastrzȩbska-Wiȩek, M.; Partyka, A.; Sobato, A.; Olejarz, A.; Kucwaj-Brysz, K.; Satata, G.; Bojarski, A. J.; Wesołowska, A.; Kieć-Kononowicz, K.; Handzlik, J. Chem. Biol. Drug. Des. 2017, 90, 1295-1306). The CYP isoforms selected for study are responsible for the metabolism of approximately 40-50% of the drugs available on the market, and their stimulation or inhibition determines the majority of metabolic drug interactions. […] In summary, the results obtained indicate a low probability of potential metabolic interactions caused by 6.

T1 sequence (P08684 whole entry): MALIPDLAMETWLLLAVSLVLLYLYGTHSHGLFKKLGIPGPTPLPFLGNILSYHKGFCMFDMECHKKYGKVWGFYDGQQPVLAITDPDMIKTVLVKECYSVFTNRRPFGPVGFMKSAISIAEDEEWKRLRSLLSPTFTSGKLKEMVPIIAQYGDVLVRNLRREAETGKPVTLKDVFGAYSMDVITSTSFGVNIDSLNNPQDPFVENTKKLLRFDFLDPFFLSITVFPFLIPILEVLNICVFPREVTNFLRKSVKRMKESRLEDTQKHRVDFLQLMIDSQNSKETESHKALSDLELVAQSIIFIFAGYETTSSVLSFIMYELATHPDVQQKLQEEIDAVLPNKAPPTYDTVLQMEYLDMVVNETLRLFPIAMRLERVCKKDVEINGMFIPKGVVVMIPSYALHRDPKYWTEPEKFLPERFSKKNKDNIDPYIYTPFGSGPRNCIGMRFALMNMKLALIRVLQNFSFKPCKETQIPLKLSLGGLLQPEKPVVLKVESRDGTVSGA

`O=C(C(c1ccccc1)N1C(=O)CCC1=O)N1CCN(c2cccc(C(F)(F)F)c2)CC1` (racemic) [Compound 6, 1-(2-Oxo-1-phenyl-2-(4-(3-(trifluoromethyl)phenyl)piperazin-1-yl)ethyl)pyrrolidine-2,5-dione]: the ED50 was determined as 73.2 mg/kg in data set [1] (Mus musculus, ip, 0.5 h, mice) and 17.9 mg/kg in data set [2]. The “6 Hz (44 mA): number of mice protected/number of mice tested” value in data set [1] (screening, 100 mg/kg i.p., 0.5 h, mice) was 4/4. Further, in data set [1] (screening, 100 mg/kg, time point 0.5 h), the “mice protected in the 6 Hz (44 mA) test” value is reported as 100%. For the same compound, the “effect on thermal allodynia in the cold plate test” value in data set [3] was “significantly increased thermal allodynia sensitivity”. The “Inhibition of specific control binding, Ca2+ channel type L (dihydropyridine binding site)” value in data set [4] (10 μM) is on record as 30.8 (10) %; in data set [4] (100 μM), 82.3 (100) %. Also, in data set [5], the “effect on CYP3A4 activity” value is recorded as “no effect”.
